Measured values: ChEMBL document CHEMBL1201862, “PubChem BioAssay data set” (2004)
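Interpolation was linear, between the two tested concentrations surrounding the appropriate level; five concentrations were tested over 48 hours in 96-well plates. GI50 marks 50% less growth.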 The source made the active and inactive calls. Cut-off read from the data, not from the text of the source: active = GI50 up to about 1.1 µM and inactive = higher.

Legend:
Experiment in all cases: growth of human tumour cells (NCI), 48 h
[1] = system: DMS-273
[2] = system: KM-20L2
[3] = system: HOP-18
[4] = system: M19-MEL
[5] = system: DLD-1
[6] = system: LXFL 529
[7] = system: DMS-114
[8] = system: SNB-78
[9] = system: RXF 631

SMILES	GI50 [1]	GI50 [2]	GI50 [3]	GI50 [4]	GI50 [5]	GI50 [6]	GI50 [7]	GI50 [8]	GI50 [9]
CCCCOC(=O)C1C(c2ccc(Cl)cc2)NC(c2ccc(Cl)cc2)C(C(=O)OCCCC)S1(=O)=O (configuration not stated)	> 100 µM (inactive)	> 100 µM (inactive)	> 100 µM (inactive)	> 100 µM (inactive)	> 100 µM (inactive)	69.8 µM (inactive)	> 100 µM (inactive)	–	–
COc1ccc(N2C(=O)C3CC(c4ccc(C)cc4)c4c([nH]c5ccccc45)C3C2=O)cc1 (configuration not stated)	24.1 µM (inactive)	10.9 µM (inactive)	2.88 µM (inactive)	> 75.9 µM (inactive)	38.6 µM (inactive)	28.7 µM (inactive)	> 49.7 µM (inactive)	> 51.4 µM (inactive)	–
NNC(=O)N/N=C1\C(=O)N(c2ccc(Cl)c(Cl)c2)C(=O)C(=O)C1c1nc2ccccc2s1 (configuration not stated)	> 100 µM (inactive)	> 100 µM (inactive)	> 100 µM (inactive)	–	> 100 µM (inactive)	> 100 µM (inactive)	> 100 µM (inactive)	> 100 µM (inactive)	–
COc1nc2c(c(O)c(C)c(=O)n2OC2OC(COC(C)=O)C(OC(C)=O)C(OC(C)=O)C2OC(C)=O)c(=O)n1C (configuration not stated)	> 100 µM (inactive)	> 100 µM (inactive)	–	> 100 µM (inactive)	> 100 µM (inactive)	> 100 µM (inactive)	> 100 µM (inactive)	> 100 µM (inactive)	> 100 µM (inactive)
Cc1ccccc1N(CCC#N)C1=NN(C(=O)CC(=O)Nc2ccccc2)C(c2ccccc2)C1 (configuration not stated)	> 100 µM (inactive)	> 100 µM (inactive)	> 100 µM (inactive)	> 100 µM (inactive)	> 100 µM (inactive)	> 100 µM (inactive)	–	67.9 µM (inactive)	> 100 µM (inactive)
O=C(O)/C(Cl)=C(Cl)/C=N/NC(=O)c1cc2ccccc2cc1O	6.84 µM (inactive)	28.8 µM (inactive)	13.5 µM (inactive)	17.9 µM (inactive)	7.69 µM (inactive)	21.6 µM (inactive)	17.3 µM (inactive)	33.7 µM (inactive)	26.4 µM (inactive)
COc1cc(/C=N/N=C(\N)NO)ccc1O	–	–	–	–	> 100 µM (inactive)	28.6 µM (inactive)	39.9 µM (inactive)	> 100 µM (inactive)	–
C=CCCCN1CCCCC1=S	> 100 µM (inactive)	> 100 µM (inactive)	> 100 µM (inactive)	> 100 µM (inactive)	> 100 µM (inactive)	–	> 100 µM (inactive)	–	> 100 µM (inactive)
Cc1ccc(S(=O)(=O)C(CC(NC=O)S(=O)(=O)c2ccc(C)cc2)NC=O)cc1 (configuration not stated)	> 100 µM (inactive)	> 100 µM (inactive)	–	> 100 µM (inactive)	> 100 µM (inactive)	> 100 µM (inactive)	> 100 µM (inactive)	> 100 µM (inactive)	> 100 µM (inactive)
Cc1ccc(-c2cc(=O)c3cc(C)c(C)c(C(=O)O)c3o2)cc1	> 100 µM (inactive)	> 100 µM (inactive)	–	> 100 µM (inactive)	> 100 µM (inactive)	> 100 µM (inactive)	> 100 µM (inactive)	> 100 µM (inactive)	> 100 µM (inactive)
Cc1cc(=O)n(-c2ccccc2C)c(C)n1	> 100 µM (inactive)	> 100 µM (inactive)	> 100 µM (inactive)	> 100 µM (inactive)	> 100 µM (inactive)	> 100 µM (inactive)	> 100 µM (inactive)	> 100 µM (inactive)	> 100 µM (inactive)
Cc1ccc(/C=C2\CCCC(C(NO)c3ccc(C)cc3)C2=NO)cc1 (configuration not stated)	42 µM (inactive)	21.7 µM (inactive)	11.4 µM (inactive)	69.5 µM (inactive)	28 µM (inactive)	61.7 µM (inactive)	30.3 µM (inactive)	60 µM (inactive)	27.4 µM (inactive)
CC12CC(Br)(Br)C(=O)C3C1CCCC32	6.58 µM (inactive)	17.4 µM (inactive)	9.89 µM (inactive)	8.34 µM (inactive)	4.63 µM (inactive)	2.38 µM (inactive)	6.3 µM (inactive)	20 µM (inactive)	–
N=C1OC(c2ccc3c(c2)OCO3)C(NNS(=O)(=O)c2ccccc2)=C1O (configuration not stated)	> 100 µM (inactive)	> 100 µM (inactive)	> 100 µM (inactive)	30.4 µM (inactive)	> 100 µM (inactive)	58.2 µM (inactive)	> 100 µM (inactive)	> 100 µM (inactive)	–
CCc1ccccc1NC(=O)C1=C(C)NC(C)=C(C(=O)Nc2c(CC)cccc2CC)C1c1ccc2c(c1)OCO2 (configuration not stated)	–	17.6 µM (inactive)	–	22.1 µM (inactive)	21.9 µM (inactive)	17 µM (inactive)	20.2 µM (inactive)	26.9 µM (inactive)	–
CCOC(C/N=c1/nc(N(C)C)ss1)OCC	23 µM (inactive)	27.7 µM (inactive)	> 66.4 µM (inactive)	0.504 µM (active)	16.4 µM (inactive)	0.489 µM (active)	18 µM (inactive)	24.6 µM (inactive)	18.4 µM (inactive)
CCCCN(CCCC)C(=O)C(=O)C(C)C(=O)CC (configuration not stated)	> 100 µM (inactive)	> 100 µM (inactive)	–	–	> 100 µM (inactive)	> 100 µM (inactive)	–	> 100 µM (inactive)	–
O=C(c1ccccc1)c1c(CNCc2ccccc2)n(C(=O)c2ccccc2)c2ccccc12	47.1 µM (inactive)	40 µM (inactive)	–	92.3 µM (inactive)	35.4 µM (inactive)	30.4 µM (inactive)	21.2 µM (inactive)	–	–
Cc1ccccc1C1OC(=O)c2ccccc21 (configuration not stated)	> 100 µM (inactive)	> 100 µM (inactive)	> 100 µM (inactive)	> 100 µM (inactive)	> 100 µM (inactive)	> 100 µM (inactive)	> 100 µM (inactive)	> 100 µM (inactive)	> 100 µM (inactive)
CCN1C[C@]2(C)CC[C@H](OC)C34C1C([C@H](OC(C)=O)[C@@H]32)[C@@]1(OC)C[C@H](OC)[C@H]2C[C@@H]4[C@@H]1[C@H]2O	> 100 µM (inactive)	> 100 µM (inactive)	> 100 µM (inactive)	> 100 µM (inactive)	> 100 µM (inactive)	> 100 µM (inactive)	82.4 µM (inactive)	> 100 µM (inactive)	–
CSc1nnc(C(C#N)C#N)nn1	> 100 µM (inactive)	> 100 µM (inactive)	–	> 100 µM (inactive)	> 100 µM (inactive)	> 100 µM (inactive)	> 100 µM (inactive)	> 100 µM (inactive)	> 100 µM (inactive)
CCCCCCCCCCCCCCCC(=O)Nc1ccn(C2OC(CO)C(O)C2O)c(=O)n1 (configuration not stated)	5.66 µM (inactive)	40.3 µM (inactive)	21.4 µM (inactive)	13.1 µM (inactive)	> 54.7 µM (inactive)	39.5 µM (inactive)	4.89 µM (inactive)	> 100 µM (inactive)	–
